Reference: patent US20180002319A1, “MACROCYCLIC PICOLINAMIDE COMPOUNDS WITH FUNGICIDAL ACTIVITY” (DOW AGROSCIENCES LLC, priority 2014, published 2018)

Tests used:
Type in all cases: in vivo
Leptosphaeria nodorum = assay: Wheat Glume Blotch (LEPTNO) fungicidal activity; settings: Parastagonospora nodorum, 24 h, 1DP (1 Day Protectant), read-out: LEPTNO Disease Control
Method: Technical grades of materials were dissolved in acetone, which were then mixed with nine volumes of H2O containing 110 ppm Triton X-100. The fungicide solutions were applied onto wheat seedlings using an automated booth sprayer to run-off. All sprayed plants were allowed to air dry prior to further handling. All fungicides were evaluated using the aforementioned method for their activity vs. all target diseases, unless stated otherwise. Wheat leaf blotch and brown rust activity were also evaluated using track spray applications, in which case the fungicides were formulated as EC formulations, containing 0.1% Trycol 5941 in the spray solutions. Wheat plants (variety Yuma) were grown from seed in a greenhouse in 50% mineral soil/50% soil-less Metro mix until the first leaf was fully emerged, with 7-10 seedlings per pot. These plants were inoculated with an aqueous spore suspension of Zymoseptoria tritici either prior to or after fungicide treatments. After inoculation the plants were kept in 100% relative humidity (one day in a dark dew chamber followed by two to three days in a lighted dew chamber at 20° C.) to permit spores to germinate and infect the leaf. The plants were then transferred to a greenhouse set at 20° C. for disease to develop. When disease symptoms were fully expressed on the 1st leaves of untreated plants, infection levels were assessed on a scale of 0 to 100 percent disease severity. Percent disease control was calculated using the ratio of disease severity on treated plants relative to untreated plants. Example C: Evaluation of Fungicidal Activity: Wheat Glume Blotch (Leptosphaeria nodorum; Bayer Code […]) Wheat plants (variety Yuma) were grown from seed in a greenhouse in 50% mineral soil/50% soil-less Metro mix until the first leaf was fully emerged, with 7-10 seedlings per pot. These plants were inoculated with an aqueous spore suspension of Leptosphaeria nodorum 24 hr after fungicide treatments. After inoculation the plants were kept in 100% relative humidity (one day in a dark dew chamber followed by two days in a lighted dew chamber at 20° C.) to permit spores to germinate and infect the leaf. The plants were then transferred to a greenhouse set at 20° C. for disease to develop. Fungicide formulation, application and disease assessment followed the procedures as described in the Example A.

[1] = system: Blumeria graminis f.sp. hordei; assay: Barley Powdery Mildew (ERYSGH) fungicidal activity; settings: 24 h, 1DP (1 Day Protectant), read-out: ERYSGH Disease Control
Method: Technical grades of materials were dissolved in acetone, which were then mixed with nine volumes of H2O containing 110 ppm Triton X-100. The fungicide solutions were applied onto wheat seedlings using an automated booth sprayer to run-off. All sprayed plants were allowed to air dry prior to further handling. All fungicides were evaluated using the aforementioned method for their activity vs. all target diseases, unless stated otherwise. Wheat leaf blotch and brown rust activity were also evaluated using track spray applications, in which case the fungicides were formulated as EC formulations, containing 0.1% Trycol 5941 in the spray solutions. Wheat plants (variety Yuma) were grown from seed in a greenhouse in 50% mineral soil/50% soil-less Metro mix until the first leaf was fully emerged, with 7-10 seedlings per pot. These plants were inoculated with an aqueous spore suspension of Zymoseptoria tritici either prior to or after fungicide treatments. After inoculation the plants were kept in 100% relative humidity (one day in a dark dew chamber followed by two to three days in a lighted dew chamber at 20° C.) to permit spores to germinate and infect the leaf. The plants were then transferred to a greenhouse set at 20° C. for disease to develop. When disease symptoms were fully expressed on the 1st leaves of untreated plants, infection levels were assessed on a scale of 0 to 100 percent disease severity. Percent disease control was calculated using the ratio of disease severity on treated plants relative to untreated plants. Example J: Evaluation of Fungicidal Activity: Barley Powdery Mildew (Blumeria graminis f.sp. hordei; Synonym: Erysiphe graminis f.sp. hordei; Bayer Code […]) Barley seedlings (variety Harrington) were propagated in soil-less Metro mix, with each pot having 8 to 12 plants, and used in the test when first leaf was fully emerged. Test plants were inoculated by dusting with infected stock plants 24 hr after fungicide treatments. After inoculation the plants were kept in a greenhouse set at 20° C. for disease to develop. Fungicide formulation, application and disease assessment on the sprayed leaves followed the procedures as described in the Example A.

Alternaria solani = assay: Tomato Early Blight (ALTESO) fungicidal activity; settings: 24 h, 1DP (1 Day Protectant), read-out: ALTESO Disease Control
Method: Technical grades of materials were dissolved in acetone, which were then mixed with nine volumes of H2O containing 110 ppm Triton X-100. The fungicide solutions were applied onto wheat seedlings using an automated booth sprayer to run-off. All sprayed plants were allowed to air dry prior to further handling. All fungicides were evaluated using the aforementioned method for their activity vs. all target diseases, unless stated otherwise. Wheat leaf blotch and brown rust activity were also evaluated using track spray applications, in which case the fungicides were formulated as EC formulations, containing 0.1% Trycol 5941 in the spray solutions. Wheat plants (variety Yuma) were grown from seed in a greenhouse in 50% mineral soil/50% soil-less Metro mix until the first leaf was fully emerged, with 7-10 seedlings per pot. These plants were inoculated with an aqueous spore suspension of Zymoseptoria tritici either prior to or after fungicide treatments. After inoculation the plants were kept in 100% relative humidity (one day in a dark dew chamber followed by two to three days in a lighted dew chamber at 20° C.) to permit spores to germinate and infect the leaf. The plants were then transferred to a greenhouse set at 20° C. for disease to develop. When disease symptoms were fully expressed on the 1st leaves of untreated plants, infection levels were assessed on a scale of 0 to 100 percent disease severity. Percent disease control was calculated using the ratio of disease severity on treated plants relative to untreated plants. Example M: Evaluation of Fungicidal Activity: Tomato Early Blight (Alternaria solani; Bayer Code […]) Tomato plants (variety Outdoor Girl) were propagated in soil-less Metro mix, with each pot having one plant, and used when 12 to 14 days old. Test plants were inoculated with an aqueous spore suspension of Alternaria solani 24 hr after fungicide treatments. After inoculation the plants were kept in 100% relative humidity (one day in a dark dew chamber followed by two to three days in a lighted dew chamber at 20° C.) to permit spores to germinate and infect the leaf. The plants were then transferred to a growth room at 22° C. for disease to develop. Fungicide formulation, application and disease assessment on the sprayed leaves followed the procedures as described in the Example A.

CCCCO[C@H]1CCOC[C@H](NC(=O)c2nccc(OC)c2OCOC(C)=O)C(=O)O[C@@H](C)[C@@H]1OCc1ccccc1 [Compound 2]
pest or weed control at 100 ppm (Leptosphaeria nodorum): > 80%
pest or weed control at 100 ppm [1]: < 80%
pest or weed control at 100 ppm (Alternaria solani): < 80%

CCCCO[C@H]1CCOC[C@H](NC(=O)c2nccc(OC)c2OCOC(C)=O)C(=O)O[C@@H](C)[C@@H]1OC(=O)C(C)C [Compound 3]
pest or weed control at 100 ppm (Leptosphaeria nodorum): > 80%
pest or weed control at 100 ppm [1]: < 80%
pest or weed control at 100 ppm (Alternaria solani): > 80%

CCCCO[C@H]1CCOC[C@H](NC(=O)c2nccc(OC)c2OCOC(C)=O)C(=O)O[C@@H](C)[C@@H]1OC(=O)c1ccccc1 [Compound 4]
pest or weed control at 100 ppm (Leptosphaeria nodorum): > 80%
pest or weed control at 100 ppm [1]: < 80%
pest or weed control at 100 ppm (Alternaria solani): > 80%

CCCCO[C@H]1CCOC[C@H](NC(=O)c2nccc(OC)c2OCOC(C)=O)C(=O)O[C@@H](C)[C@@H]1OC(=O)C1CC1 [Compound 5]
pest or weed control at 100 ppm (Leptosphaeria nodorum): > 80%
pest or weed control at 100 ppm (Alternaria solani): < 80%

COc1ccnc(C(=O)N[C@H]2COCC[C@@H](OCC(C)C)[C@@H](OCC(C)C)[C@H](C)OC2=O)c1OCOC(C)=O [Compound 6]
pest or weed control at 100 ppm (Leptosphaeria nodorum): > 80%
pest or weed control at 100 ppm (Alternaria solani): < 80%

CCCCCO[C@H]1[C@H](C)OC(=O)[C@@H](NC(=O)c2nccc(OC)c2OCOC(C)=O)CCCC[C@@H]1Oc1ccccc1 [Compound 17]
pest or weed control at 100 ppm [1]: < 80%
pest or weed control at 100 ppm (Alternaria solani): > 80%

CCCO[C@H]1[C@H](C)OC(=O)[C@@H](NC(=O)c2nccc(OC)c2OCOC(C)=O)CCCC[C@@H]1Oc1ccccc1 [Compound 18]
pest or weed control at 100 ppm [1]: < 80%
pest or weed control at 100 ppm (Alternaria solani): > 80%

COc1ccnc(C(=O)N[C@H]2CCCC[C@H](Oc3ccccc3)[C@@H](Oc3ccccc3)[C@H](C)OC2=O)c1OCOC(C)=O [Compound 19]
pest or weed control at 100 ppm [1]: < 80%
pest or weed control at 100 ppm (Alternaria solani): > 80%

COc1ccnc(C(=O)N[C@H]2COCC[C@H](Cc3ccccc3)[C@@H](OCC(C)C)[C@H](C)OC2=O)c1OCOC(C)=O [Compound 20]
pest or weed control at 100 ppm (Leptosphaeria nodorum): > 80%
pest or weed control at 100 ppm [1]: < 80%
pest or weed control at 100 ppm (Alternaria solani): > 80%

COc1ccnc(C(=O)N[C@H]2COCC[C@H](Cc3ccccc3)[C@@H](OCC(C)C)[C@H](C)OC2=O)c1OC(C)=O [Compound 21]
pest or weed control at 100 ppm (Leptosphaeria nodorum): > 80%
pest or weed control at 100 ppm [1]: < 80%
pest or weed control at 100 ppm (Alternaria solani): > 80%

COc1ccnc(C(=O)N[C@H]2CCOC[C@H](Oc3ccccc3)[C@@H](Oc3ccccc3)[C@H](C)OC2=O)c1OCOC(C)=O [Compound 37]
pest or weed control at 100 ppm (Leptosphaeria nodorum): > 80%
